This passage reports IC50 and viability, T/C results from PubChem BioAssay AID1963447 (Molecular Pharmacology Branch, DTP, NCI, 2024).

This experiment has as its system 885512-296-R-J2-PDC complex spheroid growth, % test/control. Put plainly: Anticancer human tumor 885512-296-R-J2-PDC patient-derived breast carcinoma cell line growth inhibition [Asc]. The following applies: for viability, T/C: stronger effect = lower value. Here is the method:
Multicellular complex tumor spheroid response to apoptosis pathway targeting inhibitors Alrizomadlin, Pelcitoclax, and Dasminapant in combination with a variety of drugs and investigational agents in selected tumor cell lines
The MDM2 inhibitor alrizomadlin, the Bcl-2/Bcl-xL inhibitor pelcitoclax, and the IAPs inhibitor dasminapant were evaluated both individually and in combination with standard of care and investigational anticancer small molecules within a complex spheroid model of solid tumors. . Complex spheroids include a stromal component modeled by human endothelial cells (HUVEC) and fibroblasts modeled by human mesenchymal stem cells (MSCs). The concentration ranges selected for each drug and investigational agent were based upon clinically achievable concentrations if the clinical Cmax of the agent was known.
Compounds. The drugs and investigational agents: alrizomadlin (APG-115; NSC831270), pelcitoclax (APG-1252; NSC835773), dasminapant (APG-1387;NSC834197), TAK-243 (NSC785004), copanlisib (NSC809693), olaparib (NSC753686), talazoparib (NSC767125), cobimetinib (NSC 768068), eltanexor (KPT-8602, NSC 794443), abemaciclib (NSC 768073), sotorasib (NSC818433), adagrasib (NSC 831453), MRTX-1133 (NSC 836407), Iadademestat (ORY1001, NSC 806812), and RMC-4630 (NSC839698), were obtained from the NCI Developmental Therapeutics Program Chemical Repository. The FDA-approved anticancer drug set is available from the Developmental Therapeutics Program at https://dtp.cancer.gov/organization/dscb/obtaining/available plates.htm. […] The stock solutions were prepared in dimethyl sulfoxide (DMSO, Sigma-Aldrich, St. Louis, MO, cat. D2650) at 800-fold the tested concentration and stored at -70 degrees C prior to their use. All drugs and investigational agents were tested over a range starting from a high concentration at or near the clinical Cmax and decreasing in half-log increments. If the clinical Cmax for an agent had not been determined, the highest concentration tested was 10 microM.
The patient-derived cancer (PDC) cell lines include five colon adenocarcinomas: 186277-243-T-J2-PDC, 616215-338-R-J1-PDC, 439559-082-T-J2-PDC, 463943-066-T-J2-PDC, and 519858-162-T-J1-PDC; three pancreatic carcinomas: 323965-272-R-J2-PDC, 521955-158-R6-J3-PDC, and 521955-158-R2-J5-PDC; two uterine sarcomas: 327498-152-R-J2-PDC and 993429-296-R-J1-PDC; two rhabdomyosarcomas: 755483-174-R-J1-PDC and 772245-204-R-J1-PDC; two soft tissue sarcomas: 126254-015-R-J1-PDC and 494315-158-R-J1-PDC; two malignant fibrous histiocytomas: 317291-083-R-J1-PDC and 596521-263-R-J1-PDC; two breast carcinomas: 171881-019-R-J1-PDC and 885512-296-R-J2-PDC; and one ovarian carcinoma: 6556581-035-R-J-PDC were obtained from the NCI PDMR, (https://pdmr.cancer.gov). The established cell lines HSSY-2 synovial sarcoma (RRID:CVCL 8719), SYO-1 synovial sarcoma (RRID:CVCL_7146), MPNST malignant peripheral neural sheath tumor were obtained from the Sloan Kettering Institute. The following established cell lines were purchased from the American Type Culture Collection (ATCC, Manassas, VA), Sor the received from the NCI repository:, PANC-1 pancreatic carcinoma (CRL-1469, RRID:CVCL_0480), OVCAR-5 ovarian carcinoma (RRID:CVCL_1628), OVCAR-8 ovarian carcinoma (RRID:CVCL_1629), , MCF-7 breast carcinoma (CRL-12584, RRID:CVCL_0031), MDA-MB-231 breast carcinoma (CRL-12532, RRID:CVCL_0062), NCI-H1876 small cell lung carcinoma (CRL-5902, RRID:CVCL_1503), NCI-H510A small cell lung carcinoma (HTB-184, RRID:CVCL_1565), NCI-H1417 (CRL-5869, RRID:CVCL_1469), and NCI-H196 small cell lung carcinoma (CRL-5823, RRID:CVCL_1509). Dr. Peter Houghton (Greehey Children's Cancer Research Institute, University of Texas Health Science Center, San Antonio, TX) provided Rh-18 rhabdomyosarcoma (RRID:CVCL_1659). Pooled donor human umbilical vein endothelial cells (HUVEC, Lonza, cat. CC-2519) and human mesenchymal stem cells (hMSC, Lonza, cat. PT-2501) were purchased from Lonza (Walkersville, MD).
Cell Culture. […]

Molecules are shown by their SMILES. “And” between values parts separate entries of the source, which are not always exact repeats. Equal values may be shown once. Where only a bound is given, the exact number is not on record here.
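Also: spheroids exposed to compounds for seven days.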
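For viability, T/C in this document: 100% = DMSO vehicle control wells.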

Take `C=C(F)C(=O)N1CCN(c2nc(OCC3CCCN3C)nc3c2CCN(c2cccc4cccc(Cl)c24)C3)CC1CC#N` (centres undefined) + Cc1c(S(C)(=O)=O)c(-c2cc(F)cc(N3CCN(c4ccc(NS(=O)(=O)c5ccc(NC(CCN6CCC(C(=O)OCCCP(=O)(O)O)CC6)CSc6ccccc6)c(S(=O)(=O)C(F)(F)F)c5)cc4)CC3)c2)c(-c2ccc(Cl)cc2)n1C(C)C: the IC50 by setting is: (curve of first compound, second compound 0.1 µM) 1870 nM; (curve of first compound, second compound 0.316 µM) 1920 nM; (curve of first compound, second compound 1 µM) 1910 nM; (curve of first compound, second compound 3.16 µM) 1820 nM; (curve of first compound, second compound 10 µM) 2140 nM. For the same compound, the viability, T/C is, setting by setting: (second compound 0.1 µM, first compound 0.0316 µM) 85.7%; (second compound 0.1 µM, first compound 0.1 µM) 91%; (second compound 0.1 µM, first compound 0.316 µM) 93.2%; (second compound 0.1 µM, first compound 1 µM) 85.9%; (second compound 0.1 µM, first compound 3.16 µM) 19.7%; (second compound 0.1 µM, first compound 10 µM) 0.11%. For the same compound, the viability, T/C is 76.3% (second compound 0.316 µM, first compound 0.0316 µM); 96.2% (second compound 0.316 µM, first compound 0.1 µM); 95% (second compound 0.316 µM, first compound 0.316 µM); 90.5% (second compound 0.316 µM, first compound 1 µM); 19.7% (second compound 0.316 µM, first compound 3.16 µM); 0.13% (second compound 0.316 µM, first compound 10 µM). Besides, the viability, T/C by setting is: (second compound 1 µM, first compound 0.0316 µM) 83.2%; (second compound 1 µM, first compound 0.1 µM) 84.9%; (second compound 1 µM, first compound 0.316 µM) 97.1%; (second compound 1 µM, first compound 1 µM) 91.5%; (second compound 1 µM, first compound 3.16 µM) 19.5%; (second compound 1 µM, first compound 10 µM) 0.12%. The viability, T/C is, setting by setting: (second compound 3.16 µM, first compound 0.0316 µM) 101%; (second compound 3.16 µM, first compound 0.1 µM) 90.3%; (second compound 3.16 µM, first compound 0.316 µM) 92.1%; (second compound 3.16 µM, first compound 1 µM) 82.6%; (second compound 3.16 µM, first compound 3.16 µM) 20.3%; (second compound 3.16 µM, first compound 10 µM) 0.12%. Further, the viability, T/C runs as follows: (second compound 10 µM, first compound 0.0316 µM) 115%; (second compound 10 µM, first compound 0.1 µM) 107%; (second compound 10 µM, first compound 0.316 µM) 96.5%; (second compound 10 µM, first compound 1 µM) 100%; (second compound 10 µM, first compound 3.16 µM) 24.4%; (second compound 10 µM, first compound 10 µM) 0.18%.
Consider `C=CC(=O)N1CCN(c2nc(=O)n(-c3c(C)ccnc3C(C)C)c3nc(-c4c(O)cccc4F)c(F)cc23)C(C)C1` (centres undefined), for which the viability, T/C is 90.3% and 85.9% and 94.9% (compound 0.0316 µM); 104% and 108% and 86.1% (compound 0.1 µM); 108% and 104% and 90.2% (compound 0.316 µM); 108% and 124% and 103% (compound 1 µM); 77.3% and 101% and 95.2% (compound 3.16 µM); 60.6% and 59.6% and 78.4% (compound 10 µM). The IC50 (curve of compound) is greater than 10000 nM.
With `COc1c(OCCCN2CCOCC2)ccc2c3n(c(=NC(=O)c4cnc(N)nc4)nc12)CCN3`, the viability, T/C is 99.3% and 90.1% and 99% (compound 0.00316 µM); 100% and 92.6% and 92% (compound 0.01 µM); 86.8% and 80.5% and 89.4% (compound 0.0316 µM); 74.3% and 76% and 89% (compound 0.1 µM); 43.6% and 43.9% and 56.3% (compound 0.316 µM); 6.01% and 5.98% and 9.51% (compound 1 µM). Moreover, the 50% inhibitory concentration (IC50) (curve of compound) was 249 nM and 255 nM and 370 nM.

For orientation: IC50 means the midpoint of a concentration-inhibition curve. Usually viability, T/C stands for the result in the treated group divided by that in the control group, in per cent.
